Assays:
[1] = Caco-2 cell monolayer transport (permeability) study; assay type: in vitro ADME; conditions: human, formulations at 200 µg/mL in HBSS/0.6% DMSO, pH 7.4, 37 °C, up to 120 min, n = 6; for Papp A→B at 120 min, 200 µg/mL: apical to basolateral
Method: Caco-2 cells were seeded at a density of 1 × 10^5 onto Transwell 6-well inserts with a polyethylene terephthalate membrane (0.4 µm pore size; BD Falcon) and were maintained at 37 °C under 90% humidity and 5% CO2. The medium was replaced every two to three days for both the AP and BL chambers. Cell monolayers were used 19–21 days after seeding, once confluence and differentiation were achieved. The integrity of each cell monolayer was assessed by measuring the TEER before and after the experiments with an epithelial voltammeter (Millicell-ERS). Permeability studies were performed by adding the silibinin formulations at 200 µg/mL in HBSS/0.6% DMSO (stocks were prepared at 30 mg/mL in 100% DMSO) and, in parallel, standard silibinin at different concentrations (10, 20, 50, 100, 150, 200, and 300 µmol/L).
The transport experiment was initiated by removing the culture medium from the AP and BL chambers. The Caco-2 monolayers were washed twice with pre-warmed HBSS (pH 7.4) and incubated with the same solution at 37 °C for 30 min. […]
Transport studies were performed from apical-to-basolateral (AP–BL) and basolateral-to-apical (BL–AP) chambers. The apparent permeability (Papp) values for each compound were calculated according to the following equation: Papp=dQ/dt·1/A·C0·60 where Papp is the apparent permeability (cm/s), dQ/dt is the steady-state flux, A is the diffusion area of the monolayers (cm^2), C0 is the initial concentration of the drug in the donor compartment (µM), and 60 is a conversion factor [49].
The efflux ratio was calculated to determine the absorption mechanism such as the ratio of Papp (BL–AP) […] Papp (AP–BL).
Analyses were performed using an Agilent LC 1100 series HPLC system (Agilent Technologies, Inc., Palo Alto, CA) controlled by Chemstation software, equipped with a pump, autosampler, column oven, and UV–VIS diode array detector (wavelength selected at 280 nm to detect silibinin). […] A calibration graph for the quantitative evaluation of silibinin was performed using a six-point regression curve (r^2 > 0.999).

[2] = cited from earlier work

Papp A→B at 120 min, 200 µg/mL [1] [×10⁻⁶ cm/s] | Papp B→A at 120 min, 200 µg/mL ([1]; basolateral to apical) [×10⁻⁶ cm/s] | Structure (SMILES) | Solubility in polar aprotic solvents ([2]; e.g., acetone, DMF, THF) | Solubility in non-polar solvents ([2]; e.g., chloroform and petroleum ether) | Solubility in polar protic solvents ([2]; e.g., ethanol and methanol) | Solubility in water ([2]; water) | Water solubility ([2]; water) [µg/mL]
3.2 | 6.28 | COc1cc(C2Oc3cc([C@H]4Oc5cc(O)cc(O)c5C(=O)[C@@H]4O)ccc3OC2CO)ccc1O (some centres unmarked) [silibinin] | soluble | insoluble | poorly soluble | very poor solubility in water | < 40
60 | – | COCCc1ccc(OCC(O)CNC(C)C)cc1 (centres unmarked) [metroprolol, metoprolol] | – | – | – | – | –

— PMC6480586, “Intestinal Permeability Study of Clinically Relevant Formulations of Silibinin in Caco-2 Cell Monolayers” (International Journal of Molecular Sciences, 2019)
